Laboratory results: patent publication US12122763B2, “Substituted piperidines for androgen receptor degradation” (UBIX THERAPEUTICS, INC., priority 2020, dated 2024)

Target: T1, Androgen Receptor (AR) protein (Homo sapiens, UniProt P10275, T878A)
T1 construct: endogenous in cells; host or cells: LNCaP
Experiment: Androgen Receptor (AR) protein degradation assay in LNCaP cells, western blotting
Format: cell-based
Conditions: 20 h; for inhibition at 0.01 µM: 0.01 μM compound; for inhibition at 0.1 µM: 0.1 μM compound; for inhibition at 1 µM: 1 μM compound
Summary of the method: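 AR protein level was detected by western blot (ECL) against GAPDH or β-actin controls, with 8 μg lysate protein loaded per lane after BCA quantification. Lysates came from LNCaP cells exposed to test compound for 20 h, following 3 days of growth in RPMI/10% FBS.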

T1 sequence (P10275 whole entry T878A): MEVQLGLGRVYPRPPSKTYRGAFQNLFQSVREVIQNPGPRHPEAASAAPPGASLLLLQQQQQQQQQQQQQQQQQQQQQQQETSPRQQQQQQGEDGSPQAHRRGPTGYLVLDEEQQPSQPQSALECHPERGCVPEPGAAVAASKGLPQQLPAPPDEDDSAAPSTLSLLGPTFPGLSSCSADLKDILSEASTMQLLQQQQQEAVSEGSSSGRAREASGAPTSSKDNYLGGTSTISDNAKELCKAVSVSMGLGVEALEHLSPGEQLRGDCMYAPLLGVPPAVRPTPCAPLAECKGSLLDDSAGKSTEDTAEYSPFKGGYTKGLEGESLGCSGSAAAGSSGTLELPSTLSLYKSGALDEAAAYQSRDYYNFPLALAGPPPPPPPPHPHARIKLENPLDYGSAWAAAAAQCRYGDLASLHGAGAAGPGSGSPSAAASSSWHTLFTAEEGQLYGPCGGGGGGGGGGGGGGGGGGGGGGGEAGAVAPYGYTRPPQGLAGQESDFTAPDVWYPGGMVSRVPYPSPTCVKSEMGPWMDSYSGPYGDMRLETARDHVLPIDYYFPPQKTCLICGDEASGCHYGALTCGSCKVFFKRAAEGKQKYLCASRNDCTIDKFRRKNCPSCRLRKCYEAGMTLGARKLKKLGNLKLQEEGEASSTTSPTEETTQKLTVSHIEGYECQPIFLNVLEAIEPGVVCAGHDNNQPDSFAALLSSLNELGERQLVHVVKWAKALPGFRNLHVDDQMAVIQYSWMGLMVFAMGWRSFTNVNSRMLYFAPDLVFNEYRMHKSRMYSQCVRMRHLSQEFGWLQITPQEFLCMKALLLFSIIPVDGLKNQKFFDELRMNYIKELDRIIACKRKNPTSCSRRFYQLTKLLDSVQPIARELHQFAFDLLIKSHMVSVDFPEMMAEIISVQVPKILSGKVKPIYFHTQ
T1 sequence (Q96SW2 whole entry partner): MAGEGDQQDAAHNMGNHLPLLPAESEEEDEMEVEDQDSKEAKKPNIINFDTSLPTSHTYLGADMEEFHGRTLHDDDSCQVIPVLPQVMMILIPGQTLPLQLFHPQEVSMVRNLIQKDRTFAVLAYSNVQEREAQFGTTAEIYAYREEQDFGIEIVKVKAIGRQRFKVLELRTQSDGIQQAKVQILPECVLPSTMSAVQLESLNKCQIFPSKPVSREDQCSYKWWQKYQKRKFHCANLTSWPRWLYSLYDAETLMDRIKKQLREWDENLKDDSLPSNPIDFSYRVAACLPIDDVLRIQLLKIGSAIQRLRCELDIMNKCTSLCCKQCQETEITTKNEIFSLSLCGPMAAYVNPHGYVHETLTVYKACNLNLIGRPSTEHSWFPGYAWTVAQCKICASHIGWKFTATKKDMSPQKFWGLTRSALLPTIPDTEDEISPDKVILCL

Compound | inhibition at 0.01 µM [%] | inhibition at 0.1 µM [%] | inhibition at 1 µM [%] | inhibition at 10 µM (10 μM compound) [%]
N#Cc1ccc(N2CCC(C(=O)Nc3ccc(N4CCC(CCN5CCN(c6ccc7c(c6)C(=O)N(C6CCC(=O)NC6=O)C7=O)CC5)CC4)cn3)CC2)cc1Cl (stereo not shown) [Example 87, 1-(3-chloro-4-cyanophenyl)-N-(5-(4-(2-(4-(2-(2,6-dioxopiperidin-3-yl)-1,3-dioxoisoindolin-5-yl)piperazin-1-yl)ethyl)piperidin-1-yl)pyridin-2-yl)piperidine-4-carboxamide] | 30 | 88 | 90 | –
N#Cc1ccc(N2CCC(F)(C(=O)Nc3ccc(N4CCC(CCN5CCN(c6ccc7c(c6)C(=O)N(C6CCC(=O)NC6=O)C7=O)CC5)CC4)cn3)CC2)cc1C(F)(F)F (stereo not shown) [Example 88, 1-(4-cyano-3-(trifluoromethyl)phenyl)-N-(5-(4-(2-(4-(2-(2,6-dioxopiperidin-3-yl)-1,3-dioxoisoindolin-5-yl)piperazin-1-yl)ethyl)piperidin-1-yl)pyridin-2-yl)-4-fluoropiperidine-4-carboxamide] | 35 | 87 | 96 | –
N#Cc1ncc(N2CCC(C(=O)Nc3ccc(N4CCC(CCN5CCN(c6ccc7c(c6)C(=O)N(C6CCC(=O)NC6=O)C7=O)CC5)CC4)cn3)CC2)cc1C(F)(F)F (stereo not shown) [Example 89, 1-(6-cyano-5-(trifluoromethyl)pyridin-3-yl)-N-(5-(4-(2-(4-(2-(2,6-dioxopiperidin-3-yl)-1,3-dioxoisoindolin-5-yl)piperazin-1-yl)ethyl)piperidin-1-yl)pyridin-2-yl)piperidine-4-carboxamide] | 35 | 73 | 91 | –
N#Cc1ncc(N2CCC(F)(C(=O)Nc3ccc(N4CCC(CCN5CCN(c6ccc7c(c6)C(=O)N(C6CCC(=O)NC6=O)C7=O)CC5)CC4)cn3)CC2)cc1C(F)(F)F (stereo not shown) [Example 90, 1-(6-cyano-5-(trifluoromethyl)pyridin-3-yl)-N-(5-(4-(2-(4-(2-(2,6-dioxopiperidin-3-yl)-1,3-dioxoisoindolin-5-yl)piperazin-1-yl)ethyl)piperidin-1-yl)pyridin-2-yl)-4-fluoropiperidine-4-carboxamide] | 23 | 57 | 82 | –
N#Cc1ccc(N2CCC(C(=O)Nc3ccc(N4CCC(CCN5CCN(C6CCN(c7ccc8c(c7)C(=O)N(C7CCC(=O)NC7=O)C8=O)CC6)CC5)CC4)cn3)CC2)cc1C(F)(F)F (stereo not shown) [Example 91, 1-(4-cyano-3-(trifluoromethyl)phenyl)-N-(5-(4-(2-(4-(1-(2-(2,6-dioxopiperidin-3-yl)-1,3-dioxoisoindolin-5-yl)piperidin-4-yl)piperazin-1-yl)ethyl)piperidin-1-yl)pyridin-2-yl)piperidine-4-carboxamide] | 48 | 96 | 98 | –
N#Cc1ccc(N2CCC(C(=O)Nc3ccc(N4CCC(CCN5CCN(c6ccc7c(n6)CN(C6CCC(=O)NC6=O)C7=O)CC5)CC4)cn3)CC2)cc1C(F)(F)F (stereo not shown) [Example 92, 1-(4-cyano-3-(trifluoromethyl)phenyl)-N-(5-(4-(2-(4-(6-(2,6-dioxopiperidin-3-yl)-5-oxo-6,7-dihydro-5H-pyrrolo[3,4-b]pyridin-2-yl)piperazin-1-yl)ethyl)piperidin-1-yl)pyridin-2-yl)piperidine-4-carboxamide] | 53 | 67 | 96 | –
N#Cc1ccc(N2CCC(C(=O)Nc3ccc(N4CCC(CCN5CCN(c6cccc7c6C(=O)N(C6CCC(=O)NC6=O)C7=O)CC5)CC4)cn3)CC2)cc1C(F)(F)F (stereo not shown) [Example 93, 1-(4-cyano-3-(trifluoromethyl)phenyl)-N-(5-(4-(2-(4-(2-(2,6-dioxopiperidin-3-yl)-1,3-dioxoisoindolin-4-yl)piperazin-1-yl)ethyl)piperidin-1-yl)pyridin-2-yl)piperidine-4-carboxamide] | -11 | 55 | 68 | –
N#Cc1ccc(N2CCC(C(=O)Nc3ccc(N4CCC(CCN5CC6(CCN(c7ccc8c(c7)C(=O)N(C7CCC(=O)NC7=O)C8=O)CC6)C5)CC4)cn3)CC2)cc1C(F)(F)F (stereo not shown) [Example 94, 1-(4-cyano-3-(trifluoromethyl)phenyl)-N-(5-(4-(2-(7-(2-(2,6-dioxopiperidin-3-yl)-1,3-dioxoisoindolin-5-yl)-2,7-diazaspiro[3.5]nonan-2-yl)ethyl)piperidin-1-yl)pyridin-2-yl)piperidine-4-carboxamide] | 75 | 98 | 98 | –
N#Cc1ccc(N2CCC(C(=O)Nc3ccc(N4CCC(CCN5CCC6(CC5)CN(c5ccc7c(c5)C(=O)N(C5CCC(=O)NC5=O)C7=O)C6)CC4)cn3)CC2)cc1C(F)(F)F (stereo not shown) [Example 95, 1-(4-cyano-3-(trifluoromethyl)phenyl)-N-(5-(4-(2-(2-(2-(2,6-dioxopiperidin-3-yl)-1,3-dioxoisoindolin-5-yl)-2,7-diazaspiro[3.5]nonan-7-yl)ethyl)piperidin-1-yl)pyridin-2-yl)piperidine-4-carboxamide] | 62 | 96 | 97 | –
N#Cc1ccc(N2CCC(C(=O)Nc3ccc(N4CCC(CCN5CCC6(CC5)CN(c5ccc7c(n5)CN(C5CCC(=O)NC5=O)C7=O)C6)CC4)cn3)CC2)cc1C(F)(F)F (stereo not shown) [Example 96, 1-(4-cyano-3-(trifluoromethyl)phenyl)-N-(5-(4-(2-(2-(6-(2,6-dioxopiperidin-3-yl)-5-oxo-6,7-dihydro-5H-pyrrolo[3,4-b]pyridin-2-yl)-2,7-diazaspiro[3.5]nonan-7-yl)ethyl)piperidin-1-yl)pyridin-2-yl)piperidine-4-carboxamide] | 71 | 93 | 91 | –
N#Cc1ccc(N2CCC(C(=O)Nc3ccc(N4CCC(CCN5CC(N6CCN(c7ccc8c(c7)C(=O)N(C7CCC(=O)NC7=O)C8=O)CC6)C5)CC4)cn3)CC2)cc1C(F)(F)F (stereo not shown) [Example 97, 1-(4-cyano-3-(trifluoromethyl)phenyl)-N-(5-(4-(2-(3-(4-(2-(2,6-dioxopiperidin-3-yl)-1,3-dioxoisoindolin-5-yl)piperazin-1-yl)azetidin-1-yl)ethyl)piperidin-1-yl)pyridin-2-yl)piperidine-4-carboxamide] | 39 | 93 | 96 | –
N#Cc1ccc(N2CCC(C(=O)Nc3ccc(N4CCC(CCN5CC(N6CCN(c7ccc8c(n7)CN(C7CCC(=O)NC7=O)C8=O)CC6)C5)CC4)cn3)CC2)cc1C(F)(F)F (stereo not shown) [Example 98, 1-(4-cyano-3-(trifluoromethyl)phenyl)-N-(5-(4-(2-(3-(4-(6-(2,6-dioxopiperidin-3-yl)-5-oxo-6,7-dihydro-5H-pyrrolo[3,4-b]pyridin-2-yl)piperazin-1-yl)azetidin-1-yl)ethyl)piperidin-1-yl)pyridin-2-yl)piperidine-4-carboxamide] | 48 | 89 | 76 | –
N#Cc1ccc(N2CCC(C(=O)Nc3ccc(N4CCC(CCN5CCN(C6CN(c7ccc8c(c7)C(=O)N(C7CCC(=O)NC7=O)C8=O)C6)CC5)CC4)cn3)CC2)cc1C(F)(F)F (stereo not shown) [Example 99, 1-(4-cyano-3-(trifluoromethyl)phenyl)-N-(5-(4-(2-(4-(1-(2-(2,6-dioxopiperidin-3-yl)-1,3-dioxoisoindolin-5-yl)azetidin-3-yl)piperazin-1-yl)ethyl)piperidin-1-yl)pyridin-2-yl)piperidine-4-carboxamide] | 70 | 98 | 96 | –
N#Cc1ccc(N2CCC(C(=O)Nc3ccc(N4CCC(CCN5CCN(C6CN(c7ccc8c(n7)CN(C7CCC(=O)NC7=O)C8=O)C6)CC5)CC4)cn3)CC2)cc1C(F)(F)F (stereo not shown) [Example 100, 1-(4-cyano-3-(trifluoromethyl)phenyl)-N-(5-(4-(2-(4-(1-(6-(2,6-dioxopiperidin-3-yl)-5-oxo-6,7-dihydro-5H-pyrrolo[3,4-b]pyridin-2-yl)azetidin-3-yl)piperazin-1-yl)ethyl)piperidin-1-yl)pyridin-2-yl)piperidine-4-carboxamide] | 31 | 84 | 89 | –
N#Cc1ccc(N2CCC(C(=O)Nc3ccc(N4CCC(CCN5CC6CN(c7ccc8c(c7)C(=O)N(C7CCC(=O)NC7=O)C8=O)CC6C5)CC4)cn3)CC2)cc1C(F)(F)F (stereo not shown) [Example 101, 1-(4-cyano-3-(trifluoromethyl)phenyl)-N-(5-(4-(2-(5-(2-(2,6-dioxopiperidin-3-yl)-1,3-dioxoisoindolin-5-yl)hexahydropyrrolo[3,4-c]pyrrol-2(1H)-yl)ethyl)piperidin-1-yl)pyridin-2-yl)piperidine-4-carboxamide] | 63 | 95 | 95 | –
CN(CCC1CCN(c2ccc(NC(=O)C3CCN(c4ccc(C#N)c(C(F)(F)F)c4)CC3)nc2)CC1)C1CCN(c2ccc3c(c2)C(=O)N(C2CCC(=O)NC2=O)C3=O)CC1 (stereo not shown) [Example 102, 1-(4-cyano-3-(trifluoromethyl)phenyl)-N-(5-(4-(2-((1-(2-(2,6-dioxopiperidin-3-yl)-1,3-dioxoisoindolin-5-yl)piperidin-4-yl)(methyl)amino)ethyl)piperidin-1-yl)pyridin-2-yl)piperidine-4-carboxamide] | 35 | 90 | 92 | –
N#Cc1ccc(N2CCN(C(=O)Nc3ccc(N4CCC(CN5CC6(CCN(c7ccc8c(c7)C(=O)N(C7CCC(=O)NC7=O)C8=O)CC6)C5)CC4)nc3)CC2)cc1C(F)(F)F (stereo not shown) [Example 103, 4-(4-cyano-3-(trifluoromethyl)phenyl)-N-(6-(4-((7-(2-(2,6-dioxopiperidin-3-yl)-1,3-dioxoisoindolin-5-yl)-2,7-diazaspiro[3.5]nonan-2-yl)methyl)piperidin-1-yl)pyridin-3-yl)piperazine-1-carboxamide] | -9 | 15 | 44 | 58
